Data on 25 compounds can be found in patent publication US20090181948A1, “DIAMINE DERIVATIVE” (KYOWA HAKKO KOGYO CO., LTD., priority 2005, published 2009).

This assay addresses T1, histamine H3 receptor (Rattus norvegicus, UniProt Q9QYN8).
T1 construct: from tissue; host or cells: rat striatum (Sprague-Dawley, male, 6 weeks), membrane homogenate
Kind of assay: Histamine H3 receptor binding assay ([3H]-Nα-methylhistamine binding to rat striatum homogenate). Conditions: for inhibition at 1 µM: 1 μmol/L test compound, [3H]-Nα-methylhistamine 1 nmol/L, striata of Sprague-Dawley male rats, 25° C., 1 hour, read-out: Inhibition ratio of [3H]-Nα-methylhistamine binding. As to the method:
To the striata of Sprague-Dawley male rats (6 weeks of age), a 10-fold volume of lysis buffer {50 mmol/L [[…] (Tris)]/HCl (pH 7.4), 5 mmol/L ethylenediaminetetraacetic acid (EDTA), a protease inhibitor mixture [1 mg/mL phenylmethylsulfonyl fluoride (PMSF), 1 μg/mL pepstatin A, 1 μg/mL leupeptin, 1 μg/mL chymostatin]} was added and the striata were homogenized. The resulting homogenate was centrifuged (30,000×g, 4° C., 30 min), and the obtained precipitate was resuspended in a 10-fold volume of lysis buffer, followed by centrifugation under the same condition. To the obtained precipitate, a 3-fold volume of lysis buffer was added to suspend the precipitate, and the resulting tissue homogenate was used for a test.
A test compound was dissolved in an assay buffer [50 mmol/L Tris/HCl (pH 7.4), 5 mmol/L EDTA], and [^3H]-N^α-methylhistamine (1 nmol/L) and the tissue homogenate (20 μg, in terms of protein amount) were added thereto, and then, the mixture was incubated at 25° C. for 1 hour. Then, the reaction was terminated by rapid suction filtration on a glass filter [GF/B: Whatman, previously soaked in 0.3 w/v % polyethylenimine for about 30 min]. Then, the glass filter was washed three times with 3 mL of assay buffer. This glass filter was transferred into a scintillation vial and dried at 60° C. for 30 minutes. Then, 0.5 mL of Ultimagold (Perkin Elmer) was added thereto, and the radioactivity (binding amount of [^3H]-N^α-methylhistamine) was measured using a liquid scintillation counter. The obtained value was used as a binding amount in the presence of the test compound. The same procedure as described above was carried out in the absence of the test compound, and the binding amount of [^3H]-N^α-methylhistamine obtained at this time was used as a binding amount in the absence of the test compound. Further, the binding amount of [^3H]-N^α-methylhistamine obtained in the presence of 10 μmol/L thioperamide was used as a non-specific binding amount. An inhibitory action of [^3H]-N^α-methylhistamine binding was represented by an inhibition ratio in terms of 1 μmol/L of the test compound calculated by the following Equation (1).
Inhibition ratio(%)={1−[(Binding amount in the presence of test compound)−(Non-specific binding amount)]/[(Binding amount in the absence of test compound)−(Non-specific binding amount)]}×100 (1)

T1 sequence (Q9QYN8 whole entry): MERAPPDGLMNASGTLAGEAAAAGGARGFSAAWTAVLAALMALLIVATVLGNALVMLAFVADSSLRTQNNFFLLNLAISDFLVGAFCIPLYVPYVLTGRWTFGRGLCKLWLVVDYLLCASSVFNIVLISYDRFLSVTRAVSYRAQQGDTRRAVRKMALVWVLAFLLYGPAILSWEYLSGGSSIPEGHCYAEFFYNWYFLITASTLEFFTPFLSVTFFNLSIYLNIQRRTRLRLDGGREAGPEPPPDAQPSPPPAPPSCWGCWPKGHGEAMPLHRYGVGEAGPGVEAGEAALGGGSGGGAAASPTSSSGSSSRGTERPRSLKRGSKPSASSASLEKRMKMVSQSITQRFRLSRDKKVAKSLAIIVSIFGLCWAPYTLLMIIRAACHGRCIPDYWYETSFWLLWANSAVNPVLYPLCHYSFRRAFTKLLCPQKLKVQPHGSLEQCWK

For `N#CC(C#N)=C1N(CCCN2CCCCC2)CCN1CCN1CCc2ccccc2C1` [Compound 53, {1-[2-(1,2,3,4-Tetrahydroisoquinolin-2-yl)ethyl]-3-(3-piperidinopropyl)imidazolidin-2-ylidene}malononitrile], the inhibition at 1 µM was at least 80%. Still for that read-out and setting: the same measure for `N#CC(C#N)=C1N(CCCN2CCOCC2)CCN1C1CCN(CCF)CC1` [Compound 222, {1-[1-(2-Fluoroethyl)piperidin-4-yl]-3-(3-morpholinopropyl)imidazolidin-2-ylidene}malononitrile]: at least 80%; for `C[C@@H]1CCCN1CCCN1CCN(CCCN2CCC[C@H]2C)C1=C(C#N)C#N` [Compound 116, {1,3-Bis[3-((R)-2-methylpyrrolidin-1-yl)propyl]imidazolidin-2-ylidene}malononitrile Difumarate]: at least 80%. As for `C[C@H]1CCCN1CCN(C)C(=C(C#N)C#N)N1CCC(CN2CCCCC2)CC1` [Compound 153, ({N-methyl-N-[2-((S)-2-methylpyrrolidin-1-yl)ethyl]amino}(4-piperidinomethylpiperidino)methylene)malononitrile], the inhibition at 1 µM was at least 80%. Turning to `C[C@H]1CCCN1CCCN1CCN(CCCN2CCSCC2)C1=C(C#N)C#N` [Compound 202, {1-[3-((S)-2-methylpyrrolidin-1-yl)propyl]-3-[3-(thiomorpholin-1-yl)propyl]imidazolidin-2-ylidene}malononitrile], the inhibition at 1 µM is at least 80%. Still for that read-out and setting: to `CC1CC(C)CN(CCCN2CCN(CCCN3CC(C)CC(C)C3)C2=C(C#N)C#N)C1` (stereo not shown) [Compound 109, {1,3-Bis[3-(3,5-dimethylpiperidino)propyl]imidazolidin-2-ylidene}malononitrile] belongs at least 80%; to `CC(C)N1CCC(N2CCN(CCC3CCCN3C)C2=C(C#N)C#N)CC1` (stereo not shown) [Compound 187, {1-(1-Isopropylpiperidin-4-yl)-3-[2-(1-methylpyrrolidin-2-yl)ethyl]imidazolidin-2-ylidene}malononitrile], at least 80%. On the same count and under the same terms, the same measure for `C[C@@H]1CCCN1CCN(C)C(=C(C#N)C#N)N1CCC(CN2CCCCC2)CC1` [Compound 151, ({N-methyl-N-[2-((R)-2-methylpyrrolidin-1-yl)ethyl]amino}(4-piperidinomethylpiperidino)methylene)malononitrile]: at least 80%; for `N#CC(C#N)=C1N(CCCN2CC=CCC2)CCN1CCCN1CCCC1` [Compound 89, {1-[3-(1,2,3,6-Tetrahydropyridin-1-yl)propyl]-3-[3-(pyrrolidin-1-yl)propyl]imidazolidin-2-ylidene}malononitrile]: at least 80%.

For `CC1CCCN1CCCNC(=C(C#N)C#N)N1CCC(CN2CCCCC2)CC1` (stereo not shown) [Compound 173, {[3-(2-Methylpyrrolidin-1-yl)propylamino](4-piperidinomethylpiperidino)methylene}malononitrile], the inhibition at 1 µM was at least 80%. On the same count and under the same terms, the same measure for `CC1CCCN1CCCN1CCN(CCCN2CCC(O)C2)C1=C(C#N)C#N` (stereo not shown) [Compound 114, {1-[3-(3-Hydroxypyrrolidin-1-yl)propyl]-3-[3-(2-methylpyrrolidin-1-yl)propyl]imidazolidin-2-ylidene}malononitrile]: at least 80%.

`N#CC(C#N)=C(NCCCN1CCC(F)(F)C1)N1CCC(N2CCCCC2)CC1` [Compound 168, {[3-(3,3-Difluoropyrrolidin-1-yl)propylamino](4-piperidinopiperidino)methylene}malononitrile]: the inhibition at 1 µM is at least 80%. The same measure, in the same setting: to `CC1CCCN(CCCN2CCN(CCCN3CCCCC3)C2=C(C#N)C#N)C1` (stereo not shown) [Compound 99, {1-[3-(3-Methylpiperidino)propyl]-3-(3-piperidinopropyl)imidazolidin-2-ylidene}malononitrile] belongs at least 80%.

`C[C@@H]1CCCN1CCCCN1CCN(CCN2CCC[C@H]2C)C1=C(C#N)C#N` [Compound 191, {1-[4-((R)-2-methylpyrrolidin-1-yl)butyl]-3-[2-((R)-2-methylpyrrolidin-1-yl)ethyl]imidazolidin-2-ylidene}malononitrile]: the inhibition at 1 µM was at least 80%. Still for that read-out and setting: the same measure for `CC1CC(C)CN(CCCN2CCN(CCCN3CCCC3)C2=C(C#N)C#N)C1` (stereo not shown) [Compound 96, {1-[3-(3,5-Dimethylpiperidino)propyl]-3-[3-(pyrrolidin-1-yl)propyl]imidazolidin-2-ylidene}malononitrile]: at least 80%. Still for that read-out and setting: to `CC1CCCN1CC1CCN(C(=C(C#N)C#N)N(C)CCN2CCC[C@H]2C)CC1` (stereo partly drawn) [Compound 155, ({N-methyl-N-[2-((R)-2-methylpyrrolidin-1-yl)ethyl]amino}[4-(2-methylpyrrolidin-1-ylmethyl)piperidino]methylene)malononitrile] belongs at least 80%; to `N#CCN1CCC(N2CCN(CCCN3CCCCC3)C2=C(C#N)C#N)CC1` [Compound 214, [1-(1-Cyanomethylpiperidin-4-yl)-3-(3-piperidinopropyl)imidazolidin-2-ylidene]malononitrile], at least 80%. Take `CNCCc1cnc[nH]1` [[^3H]-N^α-methylhistamine, reference compound]: under “rat striatum homogenate, read-out: dissociation constant Kd of [3H]-Nα-methylhistamine binding to the rat H3 receptor”, the Kd amounted to 0.57 ± 0.04 nM. As for `N#CC(C#N)=C1N(CCCN2CCCCC2)CCN1CCNC1CCCCC1` [Compound 63, [1-(2-Cyclohexylaminoethyl)-3-(3-piperidinopropyl)imidazolidin-2-ylidene]malononitrile Difumarate], the inhibition at 1 µM was at least 80%. Turning to `CC(C)N1CCC(CN2CCN(CCCN3CCCCC3)C2=C(C#N)C#N)CC1` [Compound 133, {1-[(1-Isopropylpiperidin-4-yl)methyl]-3-(3-piperidinopropyl)imidazolidin-2-ylidene}malononitrile], the inhibition at 1 µM was at least 80%.

Turning to `CC1CC(C)CN(CCCN2CCN(CCCN3CCCCC3)C2=C(C#N)C#N)C1` (stereo not shown) [Compound 102, {1-[3-(3,5-Dimethylpiperidino)propyl]-3-(3-piperidinopropyl)imidazolidin-2-ylidene}malononitrile], the inhibition at 1 µM was at least 80%.

For `CC1CCCN(CCCN2CCN(CCCN3CC=CCC3)C2=C(C#N)C#N)C1` (stereo not shown) [Compound 87, {1-[3-(1,2,3,6-Tetrahydropyridin-1-yl)propyl]-3-[3-(3-methylpiperidino)propyl]imidazolidin-2-ylidene}malononitrile], the inhibition at 1 µM is at least 80%. The same measure, in the same setting: the same measure for `CC(C)N1CCC(N2CCCN(CCCN3CCCCC3)C2=C(C#N)C#N)CC1` [Compound 238, [1-(1-Isopropylpiperidin-4-yl)-3-(3-piperidinopropyl)tetrahydropyrimidin-2-ylidene]malononitrile]: at least 80%; for `CC(C)N1CCC(N2CCN(CCN3CCCCC3)C2=C(C#N)C#N)CC1` [Compound 207, [1-(1-Isopropylpiperidin-4-yl)-3-(2-piperidinoethyl)imidazolidin-2-ylidene]malononitrile]: at least 80%; for `C[C@@H]1CCCN1CCCN1CCN(CCCN2CCC[C@@H]2C)C1=C(C#N)S(=O)(=O)c1ccccc1` [Compound 246, {1-[3-((S)-2-methylpyrrolidin-1-yl)propyl]-3-[3-((R)-2-methylpyrrolidin-1-yl)propyl]imidazolidin-2-ylidene}benzenesulfonylacetonitrile]: at least 80%.

As a reminder, the Kd is the concentration at which binding is half-saturated.
